Results as given in ChEMBL document CHEMBL3507680, “University of Dundee, Gates Library screen for HepG2 cell viability”.

assay: Human HepG2 cell viability assay in 384 well format; assay type: toxicity, cell-based; parameters: dose 125 nL, time 70.5 hour; cytotoxicity at 70.5 h: concentration not given beside the values; conditions: HepG2 cells, read-out: Inhibition

Compound	cytotoxicity at 70.5 h
CN1CCN(C(=O)CCc2ccccc2)Cc2cccnc21	16.1%
COc1cc(CNc2cnn(CCN3CCOCC3)c2)cc(OC)c1	-20.4%
Cn1ccnc1CN1CCOC(Cn2cccn2)C1 (centres undefined)	-1.69%
CN1CCN(C2CCN(Cc3noc(-c4ccccc4)n3)CC2)C1=O	-3.63%
Cn1cnc2c1CCN(Cc1csc(Cc3ccccc3)n1)C2	-9.86%
CCCN1C[C@H]2CC[C@@H]1CN(C(=O)c1ccc(N(C)CCO)cc1)C2	1.16%
O=C(O)CCNC(=O)N1CCc2c([nH]c3ccc(Cl)cc23)C1	-6.59%
COc1ccc2c(ccn2CC(=O)NC[C@@H]2CCCN3CCCC[C@H]23)c1	-7.27%
CCn1c(C(=O)N2CCN(CC[S+](C)[O-])CC2)cc2ccccc21 (centres undefined)	0.944%
CC(C)c1n[nH]c(C2CN(C(=O)CCCn3cccn3)CCO2)n1 (centres undefined)	-3.52%
COCC1c2nnn(CC3CC3)c2CCN1Cc1ccncc1 (centres undefined)	-8.11%
Cc1cnc(C(=O)N2CCC3(CC2)CN(c2ccccn2)CCO3)cn1	-6.44%
CCS(=O)(=O)N1CCC2(CC1)COC(COc1cccnc1)C2 (centres undefined)	-10.2%
O=C(C1CCCC1)N1CC2(CCN(C3COC3)CC2)Cc2ccccc21	-21%
O=C(CSc1nnc[nH]1)NCc1cccs1	-2.74%
CCCc1nc(NC2(COC)CCCC2)c2cnn(C)c2n1	-4.69%
CN(C)C(=O)N1CCOCC2(CCN(c3ncccn3)C2)C1 (centres undefined)	-5.25%
COCCCNS(=O)(=O)c1cccc(CSC)c1	-16.6%
CCO[C@H]1C[C@@H](O)C12CCN(C1CCN(c3ccccc3C)CC1)CC2	3.61%
O=C(c1cccnc1-n1cncn1)N1CCN(c2ccccc2)CC1	-8.14%
CCOc1ccc(OCC)c(NCc2cc(C)on2)c1	8.35%
Cn1cc(CCNC(=O)c2cc3ccccc3nc2N2CCCC2)cn1	3.18%
COCc1nc(Cn2ncn3cccc3c2=O)no1	-0.912%

Compound	cytotoxicity at 70.5 h
Cc1cc(-c2ccc(C(=O)O)cc2)nc(C2CCCN(C(C)C)C2)n1 (centres undefined)	-9.15%
O=C(Nc1cc(CCC2CCN(CCO)CC2)ccn1)c1ccccn1	45.9%
COCCN(C)CC1CCCN1S(=O)(=O)c1cc(C)oc1C (centres undefined)	-4.11%
Cc1ccc(N2CCCC(NCc3ccc(Cl)o3)C2)nn1 (centres undefined)	-1.97%
Cc1cnc(C)c(N2CCN(CCCc3[nH]nc(C)c3C)CC2)n1	1.19%
O=C(Nc1ccc(Cl)cn1)C1CCCN(CCc2ccccn2)C1 (centres undefined)	14.5%
CC(=O)N1CC(C)CN(Cc2ccon2)c2ccccc21 (centres undefined)	-4.58%
CC1(C)OCC(CNC(=O)c2cnn(-c3cc(Cl)ccc3Cl)c2N)O1 (centres undefined)	-5.2%
COc1ccc(-n2c(COC(C)C)n[nH]c2=O)cc1	-6.26%
Cc1cnn(CCCNC(=O)NC2CCN(CC(F)(F)F)C2=O)c1 (centres undefined)	-4.78%
COc1ccc(CNC(C)c2ccc(Cl)cc2)c(OC)c1OC (centres undefined)	13.3%
Cn1ncc2c(=O)[nH]c(N3CCCC3c3cccc(Cl)c3)nc21 (centres undefined)	-1.55%
CCN(C)C(=O)c1cnc(-c2noc3cc(N4CCCCC4)ccc23)s1	30.7%
CN(C)CC(=O)N1C[C@@H]2CC[C@H](Oc3ccccc3)[C@@H]2C1	-0.0251%
CN(C)CCN1CC[C@@H]2O[C@@H](COCC(=O)N3CCCC3)CC[C@@H]21	-0.268%
CC(C)C[C@H](N)COc1cccc(F)c1Oc1ccc(Cl)cc1	26.2%
Cc1cc(C(=O)N2C[C@@H]3COC[C@]3(c3nnc(C(C)C)o3)C2)on1	-9.37%
N#Cc1cccc(CS(=O)(=O)NCCC(O)c2ccccc2)c1 (centres undefined)	-10%
CC(=O)Nc1nc(C2CCCN(C(=O)CN(C)C)C2)cs1 (centres undefined)	-9.21%
CCc1ccc(CN2CCc3[nH]nc(C(=O)N4CCNC(=O)C4)c3C2)o1	-11.8%
Cc1ccc(C)c(-n2cc(CN3CCOCC3)c(-c3ccccc3)n2)c1	-3.83%
COC1COC2(CCN(Cc3cccc(C#N)c3)CC2)C1 (centres undefined)	-10.7%
Cc1nc2ccc(C(=O)N3C[C@@H](O)[C@H](N4CCCC4)C3)cc2[nH]1	-1.69%

Compound	cytotoxicity at 70.5 h
CC(C)n1cnc2c1C(C(=O)N1CCCC1)N(CC1CC1)CC2 (centres undefined)	-1.74%
CCc1nc2n(n1)CC(NCc1cnn(-c3ccccc3)n1)CC2 (centres undefined)	-9.79%
Cc1ccc(C2(O)CCN(Cc3nnc(-c4cccnc4)o3)CC2)nc1	-2.19%
CCC(C(=O)N(C)CCC1=CCN(C)CC1)c1ccccc1 (centres undefined)	57.9%
CS(=O)(=O)N1C[C@@H]2CC[C@H](C1)N(C/C=C/c1ccc(F)cc1)C2	-4.45%
CC(C)N1C[C@@H](CO)[C@H](c2ccccc2)S1(=O)=O	-3.46%
COc1cccc2c1OCC(C(=O)N1CCN(C3CCCC3)C(=O)C1)C2 (centres undefined)	-5.59%
c1ccn(Cc2noc3c2CN(Cc2ccsc2)CC3)c1	-6.24%
O=C(C1CCCCC1)N1C[C@@H]2CCNC[C@@H]21	-4.1%
CN(C)CCN1C(=O)CCCC12CCCN(Cc1cccs1)C2 (centres undefined)	-9.38%
CCc1cnc(N2CC[C@@H]3CN(C(C)=O)CCO[C@@H]3C2)nc1	-2.86%
COc1ccc(C(=O)N2CCCS2(=O)=O)cc1OC	-1.63%
CCCn1ncc(CN2CCCCC2CCCOC)c1C (centres undefined)	-2.59%
O=C(O)c1ccc2c(CN3CCCC3)c[nH]c2c1	5.69%
CCC(Cn1ccnc1)n1cnc2c(C)csc2c1=O (centres undefined)	-14.3%
CC(C)NC(=O)NC(C)c1ccc(-c2ccncc2)cc1 (centres undefined)	-7.15%
CC(C)c1nc(CSc2nnc(C3CC3)n2CC(N)=O)no1	-7.31%
Cc1c(C(=O)NC(CN2CCCC2=O)c2ccccc2)cnn1C (centres undefined)	0.932%
O=S1(=O)CCC(N2CCN(c3cc(C(F)(F)F)ccn3)CC2)C1 (centres undefined)	1.03%
COc1ccc(C(=O)N2CCCC(n3cncn3)C2)nn1 (centres undefined)	10.5%
CCN1CCN(C(=O)c2ccc(OC)nn2)c2ccccc21	-0.876%
Cc1cccc(CN2C[C@@H](CN3CCCN(C)CC3)C[C@H](CO)C2)n1	-5.2%
O=C(Nc1ccc(I)cc1C(=O)NCCN1CCOCC1)c1ccco1	8.88%

Compound	cytotoxicity at 70.5 h
CC(C)OCCS(=O)(=O)c1ccccc1C#N	11.2%
Cc1cc2ccccc2n1CCC(=O)N1CCCCC1CCO (centres undefined)	-6.95%
CN(C)c1ccc(C(=O)NCCCc2ccccn2)cn1	-1.92%
COc1ncc(C2(O)CCN(Cc3ccc(F)c(F)c3)CC2)c(OC)n1	-3.5%
Cc1cccc(C2(CNC(=O)C(C)NC(N)=O)CCCC2)c1 (centres undefined)	4.08%
c1ccc(CN2CCCC(Cn3cncn3)C2)nc1 (centres undefined)	20.8%
O=C(CNc1cc(-n2cnnn2)ccc1F)NCc1ccccc1	-118%
COCC(=O)NC1CCCN(c2ccc(C)cc2)C1=O (centres undefined)	-0.459%
O=C(C1CCOCC1)N1CCc2ncnc(-c3ccccc3)c2CC1	1.86%
COc1c(NC(=O)C(C)CCOc2ccccc2)c(C)nn1C (centres undefined)	7.42%
CN(CCn1cnnc1)C(=O)c1ccnc(OC2CCC2)c1	16.2%
CNC(=O)[C@@H]1C[C@@H](NC(=O)CCCc2cccs2)CN1C1CCOCC1	-1.92%
CC(NC(=O)N(C)Cc1ccc(Cl)s1)c1ccccn1 (centres undefined)	1.2%
O=C([C@H]1CCCO1)N1CCC2(CC1)C(=O)N(CC1CC1)c1ccccc12	-1.06%
CC(Cc1cccc(Cl)c1)NC(=O)Nc1cnn(CC(N)=O)c1 (centres undefined)	-1.82%
O=c1[nH]cnc2[nH]c(N3CCCCC3)nc12	-5.16%
CCn1cc(S(=O)(=O)Nc2nc3c(s2)CCCC3)cn1	-5.28%
CCOC(=O)CCC(=O)N1CCC(CSCc2ccco2)CC1	-12%
O=S1(=O)CCCN(Cc2ccccc2OCC(F)(F)F)CC1	-8.02%
Cc1c(CC(=O)N2CCN(CC(F)(F)F)CC2)nnn1-c1ccccc1	-11.3%
c1ccc2oc(CCCN3CCCC(Cn4cncn4)C3)nc2c1 (centres undefined)	19.8%
O=C(CN1CCC(c2ccccc2)C1)NCC(F)(F)F (centres undefined)	1.22%
CCCN(CCOC)c1nc(C)nc2sccc12	13.4%

Compound	cytotoxicity at 70.5 h
c1csc(CN2C[C@H](OCC3CCOCC3)[C@H]3COC[C@H]32)n1	14.6%
Cc1ccc(F)cc1-n1c(CN(C)S(C)(=O)=O)n[nH]c1=O	-8.73%
Cc1nc(C2CCCN2C(=O)CCn2cncn2)no1 (centres undefined)	-3.86%
Nc1nc(N)c2c(n1)OC1(COCCN(Cc3nccs3)C1)C2 (centres undefined)	-10.4%
CCCc1ccc(N2CCN(Cc3nc4ccccc4n3C)CC2)cc1	19.9%
Cc1cc(C)n(C2CCN(C(=O)c3cn4ccsc4n3)C2)n1 (centres undefined)	-7.56%
CC(C)OCCC(=O)NCCC(=O)N1CCN(c2ccccn2)CC1	-3.84%
CC(C)c1cc(C(=O)N2CCc3ccccc3C2C(=O)O)n(C)n1 (centres undefined)	-5.14%
CC(C)COC(C)C(=O)N1CCC(C)CC1 (centres undefined)	3.43%
CC(C)CNC(=O)[C@H]1CCS(=O)(=O)[C@@H]2CN(Cc3ccc(Cl)cc3)C[C@H]12	3.8%
Cc1nnsc1CN(C)Cc1ccc(C(=O)Nc2sccc2C#N)cc1	-3.25%
O=C(Cn1nc(Br)nc1Br)N1CCCCC1	-3.74%
CCCOc1ccc(C(=O)N2CCN3CCNC(=O)C3C2)cc1Cl (centres undefined)	-8.43%
Fc1cccc(F)c1Cn1c(C2CCNCC2)cc2cccnc21	3.7%
Cc1cccc(CN2CCCCC23CCNC3)n1 (centres undefined)	-8.16%
O=C(Nc1cccnc1)NC1(c2cccc(F)c2)CC1	-14.7%
O=C(COCC1CC1)Nc1ccn(Cc2cccc3cccnc23)n1	-1.28%
CC(C)N(Cc1cccc(F)c1)Cc1nc2c(cnn2C)c(=O)[nH]1	0.718%
CS(=O)(=O)NCc1cnc2n1CCN(Cc1cccs1)CC2	-4.2%
Cc1ccsc1C(=O)N1C[C@@H](C(=O)O)[C@H](C(C)C)C1	0.968%
CCOCC(O)CN1CCN(C(=O)Cc2cccc(C)c2)CC1 (centres undefined)	-4.31%
O=C([C@H]1CCCO1)N1CCC2(CC1)CNCc1ccccc12	8.83%
